In patent US20240100023A1, “Compositions and Methods For Treating Spinal Cord Injuries” (priority 2020, published 2024):

How the values were obtained:
[1] = tested on: unanesthetized, freely moving rats; test: Diaphragm EMG and plethysmography in awake rats after C2Hx; type: in vivo, Rat
Protocol: Low dose ampakine treatment was evaluated in awake, freely moving subjects to determine whether this treatment would safely and effectively increase diaphragm activity impaired due to acute- or sub-acute cervical SCI. In a placebo-controlled experiment with freely-moving non-anesthetized rats, ventilation and metabolic rate (VCO2) were measured using whole body plethysmography and diaphragm EMG using in-dwelling muscle electrodes. Diaphragm electromyography (EMG) was recorded using chronic in-dwelling electrodes in unanesthetized, freely moving rats. A spinal hemilesion was induced at C2 (C2Hx), and rats were studied at 4- and 14-days post injury during quiet room air breathing and acute respiratory challenge accomplished by inspiring 10% O2, 7% CO2 gas mixture. At 4 and 14 days following C2 spinal hemisection injury (C2Hx), rats were given a single intravenous bolus of CX717 (5 mg/kg, n=8), CX1739 (5 mg/kg, n=8) or vehicle (2-hydroxypropyl-beta-cyclodextrin; HPCD; n=8) (FIG. 22). Hemisectional spinal surgery results in reduced diaphragm activity as measured by EMG and plethysmography (FIG. 23).

Rat (SD) [2] = test: Radial arm maze - spatial memory; type: in vivo; conditions: for Minimum Effective Dose, radial arm maze - spatial memory: Rat (SD), IP
Protocol: Yet another animal model for evaluating ampakine drug activity employed herein is the well-known and widely accepted Radial Arm Maze model. CX717 was tested for its ability to improve the performance of aged rats in an eight-arm radial maze using a cross-over design study. This behavioral test uses a standard eight-arm radial maze wherein five arms were open and baited with food pellets for the first morning session. Each animal was allowed to consume the food rewards present in the open arms and was then returned to its home cage. Six hours later animals were returned to the maze, wherein all eight-arms were open, but only the three arms previously closed contained food rewards. Scoring was based on the number of correct choices before an incorrect choice (re-entering an arm that was visited during the morning acquisition session) was made and on the total number of incorrect choices made before all three of the still baited arms were visited. CX717 was tested at six doses (0.03, 0.1, 0.3, 1, 3 and 10 mg/kg in hydroxypropyl β-cyclodextran, i.p.), administered 30 min prior to the start of the morning acquisition session and no drug was given prior to the second trial six hours later.
For CX1739 male Sprague-Dawley rats were trained to perform the win shift assay on the radial arm maze for approximately 10 weeks prior to the study. On each day of training and testing, each rat completed one trial, split into a sample phase and a test phase. During the sample phase, the rat was placed on a 12-arm radial arm maze surrounded by visual cues. Food wells at the end of each arm were baited with sucrose pellets but access to three arms, selected randomly, was blocked with a clear plastic divider at the arm entrance. The rat was allowed 5 minutes to search the maze and collect the available food pellets before being removed from the maze. Fifteen minutes later the rat was returned to the maze for the test phase of the trial. During the test phase, the rat was allowed access to all 12 arms of the maze but only the arms that had been blocked previously were baited with sucrose pellets. […]

[3] = tested on: evoked fEPSPs in rat hippocampus; test: Evoked fEPSPs in rat hippocampus in vivo (perforant path / dentate gyrus); design: species or system Rat (Long Evans); conditions: for Minimum Effective Dose, effect on evoked fEPSPs in rat hippocampus: Rat (Long Evans), IP; for Effect on evoked fEPSP / EPSP amplitude: anesthetized rat, intraperitoneal
Protocol: Further selection and characterization of ampakines to identify SCI recovery drugs useful within the invention involved electrophysiological studies (to measure “electrically evoked field excitatory postsynaptic potentials” (fEPSPs) for test compounds). CX717 and CX1739 were tested for their ability to facilitate synaptic responses in vivo in anesthetized animals following peripheral administration. Stimulating and recording electrodes were inserted into the perforant path and dentate gyrus of the hippocampus, respectively. Electrically evoked field excitatory postsynaptic responses (fEPSPs) were measured before administration of ampakines, and for approximately 2 hours following intraperitoneal administration of ampakines.
Electrically evoked field excitatory postsynaptic potentials (fEPSPs) were determined for the exemplary test ampakines CX717 and CX1739 as described. […] The response magnitude was related to the plasma levels achieved during the study. […] Both ampakines appear to produce a 25% maximum increase in fEPSP amplitude.

Mouse (CD1) = test: Amphetamine-stimulated locomotion in mice; type: in vivo; conditions: for Minimum Effective Dose, amphetamine-stimulated locomotion: Mouse (CD1), IP; for Dose producing a significant decrease in amphetamine-stimulated locomotion: mice, amphetamine 2 mg/kg i.p.
Protocol: (§1) Effects of exemplary low impact ampakines were also evaluated in mice for the ability to inhibit amphetamine-stimulated locomotor activity. Mice were placed in the locomotor chamber for 20 min to habituate, removed, injected with either vehicle or SCI recovery ampakine (CX717), and 5 min later injected with 2 mg/kg i.p. Amphetamine Mice were returned to the locomotor chamber 10 min later, and their activity measured for a further 15 min. In related studies, adult male CD1 mice or male Sprague-Dawley rats were acclimated in a test chamber for 20 minutes removed and dosed i.p. (mice) or orally (rats) with CX1739, vehicle, or a reference compound. Five (mice) or 10 (rats) were then injected with amphetamine (2 mg/kg, i.p.) or saline vehicle and were returned to the activity test chamber.

Rat (SD) [4] = test: Amphetamine-stimulated locomotion and rearing in rats; type: in vivo; conditions: for Minimum Effective Dose, amphetamine-stimulated locomotion and rearing: Rat (SD), PO
Protocol: as §1

[5] = 14 days post injury, baseline breathing, 5 mg/kg i.v.

## O=C(c1ccc2nonc2c1)N1CCOCC1 [CX717, 1-(benzofurazan-5-ylcarbonyl)morpholine]
[1]; [5]
  Increase in tidal volume: ~20%
  Increase of peak inspiratory ipsilateral diaphragm EMG activity: ~30%
Rat (SD) [2]
  Minimum Effective Dose, radial arm maze - spatial memory: 0.3 mg/kg
[3]
  Minimum Effective Dose, effect on evoked fEPSPs in rat hippocampus: 5 mg/kg
  Effect on evoked fEPSP / EPSP amplitude: long-lasting increase
Mouse (CD1)
  Minimum Effective Dose, amphetamine-stimulated locomotion: 18 mg/kg
  Dose producing a significant decrease in amphetamine-stimulated locomotion: 3 mg/kg
Rat (SD) [4]
  Minimum Effective Dose, amphetamine-stimulated locomotion and rearing: 1 mg/kg

## CN(C(=O)c1ccc2nonc2c1)C1CCOCC1 [CX1739, N-Methyl-N-tetrahydro-2H-pyran-4-yl-[2,1,3]-benzoxadiazole-5-carboxamide]
[1]; 4-day time point, 5 mg/kg intravenous bolus
  Increase in tidal volume: 20%
[1]; 10% O2, 7% CO2, follows the 4-day results
  Tidal volume during hypoxia-hypercapnia challenge: larger increase in tidal volume
[1]; [5]
  Increase in tidal volume: no change in tidal volume
  Increase of peak inspiratory ipsilateral diaphragm EMG activity: ~10%
Rat (SD) [2]
  Minimum Effective Dose, radial arm maze - spatial memory: 0.3 mg/kg
Rat (SD) [2]; ip
  Dose producing the maximal effect / optimal dose in the maze assays: 0.3 mg/kg
[3]
  Minimum Effective Dose, effect on evoked fEPSPs in rat hippocampus: 5 mg/kg
  Effect on evoked fEPSP / EPSP amplitude: substantial increase
Mouse (CD1)
  Minimum Effective Dose, amphetamine-stimulated locomotion: 30 mg/kg
  Dose producing a significant decrease in amphetamine-stimulated locomotion: 30 mg/kg
Rat (SD) [4]
  Minimum Effective Dose, amphetamine-stimulated locomotion and rearing: 1 mg/kg
Rat (SD) [4]; rats, all doses tested
  Amphetamine-stimulated rearing behavior in rats: modest reduction
